Patent US8629127B2, “Compositions and methods of treatment for inflammatory diseases” (The Board of Regents of the University of Oklahoma, priority 2004, dated 2014)

Columns and labels:
[1] = patients with inflammatory bowel disease; cited from earlier work
TNBS-induced colitis [2] = test: Histological assessment of TNBS-induced colitis; type: in vivo, rat; conditions: for Cumulative (aggregate) microscopic colitis injury score: 8 days after TNBS, 5-day treatment, scale 0-15; for Decrease in aggregate microscopic injury score: 11 days after TNBS, 8-day treatment, vs TNBS alone
Text: Male Sprague Dawley rats (200-250 grams) were housed in cages containing contact bedding. Rats were deprived of food for 24 hrs prior to the induction of colitis, but were allowed free access to water throughout the experiment. Institutional approval for experimental protocols was provided by the research and animal care committees of the research services at the Oklahoma City Veterans Administration Medical Center. Following a 24 hr fast, rats were lightly anesthetized using isoflurane followed by insertion of a polyethylene catheter into the anus. The tip of the catheter was advanced 8 cm proximal from the anus and a single dose of TNBS (Sigma, St. Louis, Mo.), dissolved in 50% ethanol, was injected through the cannula (15 mg dissolved in a 0.6 ml volume of 50% ethanol) to induce colitis. Following the administration of TNBS the animals were maintained in a head-down position for approximately 60 seconds to prevent leakage of the infusate. After 72 hrs, rats dosed initially with TNBS were randomly assigned to one of four treatment groups to receive daily intracolonic therapy in a manner similar to that used for TNBS administration. […] An additional group of rats (Group E) served as control and received saline per rectum on day 0 and at subsequent intervals that corresponded to treatment protocols. Rats were treated for either 5 or 8 days and then sacrificed by cervical dislocation. FIG. 1 illustrates the design of these experiments. Colonic tissue samples taken from the initial segment were immersed in 10% phosphate buffered formalin and subsequently embedded in paraffin. Sections of 3 micron thickness were cut and stained with hematoxylin and eosin. The slides were then evaluated by a pathologist for epithelial damage, architectural changes, mononuclear infiltration, polymorphonuclear leukocyte (PMN) infiltration and ulceration. The individual microscopic features of colitis were graded according to criteria noted in Table 2. In addition to scoring individual features of colitis, an aggregate score of colitis was tabulated by adding together individual scores, thus, providing a global assessment of colitis. [table]

TNBS-induced colitis [3] = test: Macroscopic assessment of TNBS-induced colitis; type: in vivo, rat; conditions: scale 0-6
Text: Male Sprague Dawley rats (200-250 grams) were housed in cages containing contact bedding. Rats were deprived of food for 24 hrs prior to the induction of colitis, but were allowed free access to water throughout the experiment. Institutional approval for experimental protocols was provided by the research and animal care committees of the research services at the Oklahoma City Veterans Administration Medical Center.
(§1) Following a 24 hr fast, rats were lightly anesthetized using isoflurane followed by insertion of a polyethylene catheter into the anus. The tip of the catheter was advanced 8 cm proximal from the anus and a single dose of TNBS (Sigma, St. Louis, Mo.), dissolved in 50% ethanol, was injected through the cannula (15 mg dissolved in a 0.6 ml volume of 50% ethanol) to induce colitis. Following the administration of TNBS the animals were maintained in a head-down position for approximately 60 seconds to prevent leakage of the infusate. After 72 hrs, rats dosed initially with TNBS were randomly assigned to one of four treatment groups to receive daily intracolonic therapy in a manner similar to that used for TNBS administration. […] An additional group of rats (Group E) served as control and received saline per rectum on day 0 and at subsequent intervals that corresponded to treatment protocols. Rats were treated for either 5 or 8 days and then sacrificed by cervical dislocation. FIG. 1 illustrates the design of these experiments.
Upon sacrifice, the distal 8 cm of the colon was removed, opened by a longitudinal incision and rinsed with phosphate buffered saline to remove fecal material. Macroscopic assessment of colitis was carried out by an independent observer who was unaware of the treatment groups. Inflammation was present if the mucosa was erythematous. Ulceration of the mucosa was defined as a distinct break or interruption of the mucosa. Once macroscopic damage was assessed full thickness colonic tissue samples were taken from the inflamed areas and either processed for histology or snap frozen in liquid nitrogen for subsequent cytokine measurement and determination of myeloperoxidase (MPO) activity.

DSS-induced colitis = test: Histological assessment of DSS-induced colitis; type: in vivo, rat; conditions: DSS colitis (4% DSS, 4 days); 4-day intracolonic treatment; maximal score 12
Text: Male Sprague Dawley rats (200-250 grams) were housed in cages containing contact bedding. Rats were deprived of food for 24 hrs prior to the induction of colitis, but were allowed free access to water throughout the experiment. Institutional approval for experimental protocols was provided by the research and animal care committees of the research services at the Oklahoma City Veterans Administration Medical Center. Colitis was induced by oral administration of a 4% solution of DSS (dextran sulfate sodium) in drinking water for 4 days. […] Animals received treatment for 4 days. Macroscopic indices of colonic injury were scored and tabulated. Histological features that were examined included epithelial damage and mucosal ulceration. Additional measures included determination of serum C-reactive protein (CRP) levels and cytokine gene expression in colonic tissues performed by ribonuclease protection assay (RPA). Colonic tissue samples taken from the initial segment were immersed in 10% phosphate buffered formalin and subsequently embedded in paraffin. Sections of 3 micron thickness were cut and stained with hematoxylin and eosin. The slides were then evaluated by a pathologist for epithelial damage, architectural changes, mononuclear infiltration, polymorphonuclear leukocyte (PMN) infiltration and ulceration. […]

IL-6 = test: Cytokine gene expression in rat colon (RPA), TNBS colitis; type: in vivo; conditions: 11 days after TNBS, 8-day treatment
Description: (§2) Following a 24 hr fast, rats were lightly anesthetized using isoflurane followed by insertion of a polyethylene catheter into the anus. The tip of the catheter was advanced 8 cm proximal from the anus and a single dose of TNBS (Sigma, St. Louis, Mo.), dissolved in 50% ethanol, was injected through the cannula (15 mg dissolved in a 0.6 ml volume of 50% ethanol) to induce colitis. Following the administration of TNBS the animals were maintained in a head-down position for approximately 60 seconds to prevent leakage of the infusate. After 72 hrs, rats dosed initially with TNBS were randomly assigned to one of four treatment groups to receive daily intracolonic therapy in a manner similar to that used for TNBS administration. […] An additional group of rats (Group E) served as control and received saline per rectum on day 0 and at subsequent intervals that corresponded to treatment protocols. Rats were treated for either 5 or 8 days and then sacrificed by cervical dislocation. FIG. 1 illustrates the design of these experiments. Following the manufacturer's protocol, 1 ml of TRI Reagent (Sigma, St. Louis, Mo.) is used per 100 mg of tissue. The frozen tissue is placed into the TRI Reagent and immediately homogenized using a tissue macerator. The homogenates are transferred to microcentrifuge tubes and 0.2 ml of chloroform is added per ml of TRI Reagent used. The samples are shaken thoroughly and allowed to sit at room temp for 3 min. Samples were then centrifuged at 12000×g for 15 min at […]. After centrifugation, the upper aqueous phase was transferred to a new tube and […] of 2-propanol is added to precipitate the RNA. After sitting at room temp for 10 min. the samples are centrifuged at 12000×g for 15 min. The supernatants are discarded and the pellets are washed in 70% ethanol followed by centrifugation at 12000×g for 5 min. The ethanol was removed and the pellets are dissolved in 50 μl of DEPC treated water per sample. Quantitation is performed by spectrophotometry at 260 nm and 280 nm. RPA analysis was performed with RiboQuant™ multi-probe RNase protection assay system (BD Biosciences-Pharmingen, San Diego, Calif.). To 20 μg of total RNA in 8 μl of hybridization buffer and 2 μl of ^32P-labeled in vitro transcribed RNA probes were added. The probes were transcribed from the multiprobe template set rCK-1 which as a panel of probes against IL-1a, IL-1b, IL-3, IL-5, IL-10, IL-2, TNFα, TNBβ, GAPDH genes. Probes were prepared according to the manufactures protocol. The RNA samples containing labeled probes were incubated briefly at 90° C., slowly cooled to 56° C. and hybridized overnight at that temperature. The samples were then slowly cooled to 30° C. Thereafter, a mixture of RNases A and T1 was added to digest single-stranded RNA leaving the double-stranded RNA formed by the probes annealing to their cognate mRNAs intact. Following proteinase K digestion and phenol-chloroform extraction, the undigested double-stranded RNA was precipitated with ammonium acetate and ethanol. […] The ethanol was removed and the pellets were dissolved in 5 μl of formamide loading dye. The double-stranded RNAs were resolved on a 5% polyacrylamide/urea gel run in TBE buffer. After electrophoresis, the gel was dried at 80° C. under vacuum and then exposed to a PhosphorImager screen overnight. Detection and quantitation of the resolved bands on the gel were performed on a Storm PhosphorImager™ system (Amersham Biosciences, Piscataway, N.J.).

IL-4 = test: as above; type: in vivo; conditions: 11 days after TNBS, 8-day treatment
Description: as §2

TNF-α = test: as above; type: in vivo; conditions: 11 days after TNBS, 8-day treatment
Description: as §2

IL-1B = test: as above; type: in vivo; conditions: 11 days after TNBS, 8-day treatment
Description: as §2

IL-1A = test: as above; type: in vivo; conditions: 11 days after TNBS, 8-day treatment
Description: as §2

Myeloperoxidase activity = Myeloperoxidase activity in colon tissue, TNBS colitis; type: in vivo, rat; conditions: 11 days after TNBS; 8-day treatment
Description: as §1, with “experiments. Myeloperoxidase activity was used as an indirect measure of the severity of colonic inflammation by PMNs. […] C. The tissues were then removed from storage at −80° C. and allowed to thaw on ice. […] The absorbance changes were read at 450 nm and recorded. Results were expressed as ng/ml/g of tissue.” for “experiments.”

[4] = 8 days after TNBS, 5-day intracolonic treatment, 5-ASA 100 mg/kg, NAC 40 mM
[5] = 11 days after TNBS, 8-day intracolonic treatment

SMILES	Patients who cannot tolerate this medication (side effects) [1]	Cumulative (aggregate) microscopic colitis injury score (TNBS-induced colitis [2])	Decrease in aggregate microscopic injury score (TNBS-induced colitis [2])	Macroscopic injury score (TNBS-induced colitis [3]; [4])	Macroscopic injury score (TNBS-induced colitis [3]; [5])	Aggregate microscopic injury score (DSS-induced colitis)	IL-6 gene expression, Mean ± SEM (IL-6)	IL-4 gene expression, Mean ± SEM (IL-4)	TNF-α gene expression, Mean ± SEM (TNF-α)	IL-1B gene expression, Mean ± SEM (IL-1B)	IL-1A gene expression, Mean ± SEM (IL-1A)	Reduction of MPO activity below TNBS values (Myeloperoxidase activity)
O=C(O)c1cc(/N=N/c2ccc(S(=O)(=O)Nc3ccccn3)cc2)ccc1O [sulfasalazine]	up to one third											
CC(=O)N[C@@H](CS)C(=O)O [NAC, N-acetylcysteine]		9.0±1.8	53%	4.1±0.6	1.2±0.2	4.0±1.1	0.76 ± 0.14 Relative O.D units	1.20 ± 0.26 Relative O.D units	1.04 ± 0.017 Relative O.D units	11.88 ± 1.0 Relative O.D units	1.28 ± 0.16 Relative O.D units	40%
Nc1ccc(O)c(C(=O)O)c1 [5-ASA, 5-aminosalicylic acid]		9.0±0.9	46%	3.0±0.7	1.8±0.2	4.1±0.9	0.79 ± 0.22 Relative O.D units	1.40 ± 0.25 Relative O.D units	1.25 ± 0.12 Relative O.D units	11.49 ± 2.54 Relative O.D units	1.33 ± 0.18 Relative O.D units	32%
